Measured values: ChEMBL document CHEMBL3399949, “Fingerprint-based consensus virtual screening towards structurally new 5-HT(6)R ligands” (Bioorg Med Chem Lett, 2015)

Test: Dissociation constant, pKa of the compound
Assay type: physicochemical

pKa	SMILES
3.48	O=S(=O)(Nc1cc(Sc2cccc3cccnc23)c(O)c2ccccc12)c1ccc(F)cc1
-0.69	Nc1c(S(=O)(=O)c2ccccc2)sc2nc(-c3ccccc3)cc(-c3ccccc3)c12
-0.25	Cc1ccc(S(=O)(=O)c2cnc3ccc(F)cc3c2SCc2ccc(Cl)cc2)cc1
6.95	Brc1ccc2c(c1)c1c3n2CCN(Cc2ccccc2)C3CCC1 (centres undefined)
-1.07	Cc1ccc(Cl)cc1N(C)C(=O)c1cn(-c2ccc(F)cc2F)c(=O)c2ccccc12
3.48	O=S(=O)(Nc1cc(Sc2cccc3cccnc23)c(O)c2ccccc12)c1ccccc1
-0.33	Cc1ccc(S(=O)(=O)N/N=C2\CCCc3c2[nH]c2ccc(Cl)cc32)cc1
-0.59	COCCn1c(C)c(C)c(S(=O)(=O)c2ccc(Cl)cc2)c1N
5.3	O=S(=O)(Nc1ccccc1-c1nccc2ccccc12)c1ccc(Cl)cc1
5.56	O=S(=O)(Nc1cc2c(c3ccccc13)OC1(N3CCOCC3)CCCCC21)c1ccccc1 (centres undefined)
2.34	Cc1ccc(Nc2c(S(=O)(=O)c3ccccc3)cnc3ccc(Cl)cc23)cc1
1.93	O=S(=O)(Nc1ccn(Cc2cccc3ccccc23)n1)c1ccc(Br)s1
-1.37	COc1cccc(-n2cc(C(=O)N(C)c3cccc(Cl)c3)c3ccccc3c2=O)c1
3.05	NC(=O)C1CCN(c2c(S(=O)(=O)c3ccccc3)cnc3ccc(Cl)cc23)CC1
